Laboratory results published in paper PMC11571207, “Stereorandomized Oncocins with Preserved Ribosome Binding and Antibacterial Activity” (Journal of Medicinal Chemistry, 2024).
Values after ≈ are worked out from the molar mass of the structure shown. Like-named read-outs stand apart in the source and are kept apart here. No end group written: not given here.

Legend:
K. pneumoniae NCTC418 = test: Time-killing kinetic assay, K. pneumoniae; assay type: cell-based, Klebsiella pneumoniae; details: 8× MIC, full MHB pH 7.4, 0-6 h, n = 6
Method: (§1) Time-Killing Kinetic Assay
(§2) Single colonies of E. coli W3110 and K. pneumoniae NCTC418 were picked and grown overnight with shaking (180 rpm) in LB (Sigma-Aldrich, Buchs, Switzerland) medium 5 mL overnight at 37 °C. The overnight bacterial cultures were diluted to OD600 = 0.002 (2 × 10^6 CFU/mL) in fresh MHB medium. Stock solutions of AMPs in sterilized milliQ water were prepared in 1 mg/mL and were diluted to two times more than required concentration in fresh MHB (Sigma- Aldrich, Buchs, Switzerland) medium at pH 7.4. 100 μL of prepared bacteria solution in MHB and 100 μL of samples in MHB were mixed in a 96-well microtiter plate (TPP, untreated, Corning Incorporated, Kennebunk, USA). Untreated bacteria at 1 × 10^6 CFU/mL were used as a growth control. 96-well microtiter plates were incubated in 37 °C with shaking (180 rpm). Surviving bacteria were quantified at 0, 0.5, 1, 2, 4 and 6 h by plating 10 -fold dilutions of the sample in sterilized normal saline on LB agar plates. LB agar plates were incubated at 37 °C for 10 h, and the number of individual colonies was counted at each time point. The assay was performed in triplicate in a biosafety level 2 lab. […]

S. aureus COL (MRSA) = test: microbe, parasite or virus in culture; details: for MIC: Staphylococcus aureus, MRSA; for MIC S. aureus COL (MRSA): supplement CSV
Procedure, shortened: (§3)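 Read-out was visible growth after MTT addition, the MIC being the lowest inhibitory peptide concentration. Bacteria grown to log phase in LB were exposed in MH medium to peptide from 64 μg/mL in twofold dilutions for 15-18h at 37°C.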

P. aeruginosa PAO1 = test: microbe, parasite or virus in culture; details: for MIC: Pseudomonas aeruginosa; for MIC P. aeruginosa PAO1: supplement CSV
Procedure, shortened: as §3

K. pneumoniae NCTC 418 = test: microbe, parasite or virus in culture; details: for MIC: Klebsiella pneumoniae; for MIC K. pneumoniae NCTC418: supplement CSV
Procedure, shortened: as §3

A. baumannii ATCC19606 = test: microbe, parasite or virus in culture; details: for MIC: Acinetobacter baumannii; for MIC A. baumannii ATCC19606: supplement CSV
Procedure, shortened: as §3

E. coli W3110 [1] = test: microbe, parasite or virus in culture; details: for MIC: Escherichia coli; for MIC E. coli W3110: supplement CSV
Procedure, shortened: as §3

E. coli W3110 [2] = test: Time-killing kinetic assay, E. coli; assay type: cell-based, Escherichia coli; details: 8× MIC, full MHB pH 7.4, 0-6 h, n = 6
Method: as §1, §2

human red blood cells = test: Hemolysis assay, minimum hemolytic concentration
[3] = test system: E. coli ribosome, U2506 of the 23S rRNA; test: Ribosome footprinting (CMCT modification of U2506); assay type: binding; details: 1 μM peptide, 10.5 μM CMCT, purified E. coli ribosomes (5 pmol), 25 °C; primer extension, sequencing gel
Method: A 5 mL culture of E. coli MG1655 (WT-cells) was grown in LB overnight (220 rpm, 37 °C). One liter LB medium was inoculated, and bacteria were grown to OD = 0.6 (220 rpm. 37 °C); cells were centrifuged in centrifuge bottles, and the pellet was resuspended in ice-cold water and transferred in 50 mL falcon tubes. Falcon tubes were centrifuged, the supernatant was removed, the pellet was resuspended in 15 mL polysome buffer (TRIS/HCl pH 7.5 20 mM, NH4Cl 100 mM, MgCl2 10 mM, EDTA 0.5 mM, β-mercaptoethanol 60 mM), frozen dropwise in N2 (l), and stored at −80 °C. The cells were ground in CryoMil with the standard program (1 min precooling, 2 min grinding 5/s, 2 min cooling, 2 min grinding 5/s). The powder was transferred in 50 mL falcon tubes containing N2 (l) and stored at −80 °C. The lysates were thawed with a water bath (30 °C), put on ice, transferred to precooled Eppendorf tubes, and centrifuged (5000 g, 2 min, 4 °C). The clear lysate was transferred to new precooled tubes, centrifuged (14 000 g, 10 min, 4 °C), and the supernatant was transferred to new precooled tubes. 300 mL of clear lysate was loaded on a 10–50% sucrose gradient in CMCT buffer (K-borate buffer pH 8 80 mM, MgCl2 25 mM, NH4Cl 100 mM) and ultracentrifuged (3 h, 234 050 g, 4 °C). The fractions containing monosomes and polysomes were collected and ultracentrifuged overnight (16 h, 260 800 g, 4 °C). The supernatant was discarded, and the pellet was washed with ice-cold CMCT buffer. The ribosomes were resuspended in 100 μL CMCT buffer with a mini magnetic stirring bar and stored on ice. The concentration of ribosomes was measured in 1/200 dilution in water.
Ribosomes (5 pmol) were mixed with 8 μL of CMCT buffer, the compound of interest 1 μM, and water to a final volume of 20 μL in a precooled tube and incubated at 25 °C for 10 min. 20 μL of CMCT (10.5 μM) in water was added and incubated at 25 °C for 30 min. The reaction was stopped with 160 μL of EDTA (30 μM), and the samples were stored on ice.
160 μL portion of RNA resuspension buffer and 40 μL of 10% SDS were added, and the samples were vigorously resuspended. 400 μL of prewarmed acid phenol was added, and the samples were incubated on a thermomixer (5 min, 1200 rpm, 65 °C). The samples were put on ice for 5 min and centrifuged (5 min, 14 000 g, RT). The watery phase was transferred to a new precooled tube, 400 μL of phenol–chloroform–isoamyl alcohol (4 °C) was added, and the samples were mixed (5 min, 1200 rpm, RT). The samples were centrifuged again (5 min, 14 000g, RT), and the watery phase was transferred to another precooled tube. 34 μL of 3 M NaOAc pH 5.5, 0.8 μL of Glycoblue and 400 μL of isopropanol were added, and the samples were incubated for 3 h at −80 °C. The samples were then centrifuged (40 min, 21 000g, 4 °C), and the pellet was washed with ice-cold 70% EtOH. The residual liquid was removed, and the samples were dried (5 min, 37 °C). The samples were resuspended in 20 μL of water, the concentration was measured, and the samples were −80 °C.
Primers designed to probe the positions 2506 of the 23S rRNA (5-[sequence]-3′) were labeled with radioactive phosphate (γ^32 P-ATP). […] To prepare primers for one reaction, 1 μL of primer (0.3 μM), 0.4 μL of 5× PNK-buffer, 0.25 μL of water, 0.2 μL of γ^32 P-ATP, and 0.15 μL of T4 PNK were mixed and incubated at 37 °C.

[4] = test system: P. aeruginosa PA14 4.13 (phoQ); details: for MIC P. aeruginosa PA14 4.13: supplement CSV

CC[C@H]1OC(=O)[C@H](C)[C@@H](O[C@H]2C[C@@](C)(OC)[C@@H](O)[C@H](C)O2)[C@H](C)[C@@H](O[C@@H]2O[C@H](C)C[C@H](N(C)C)[C@H]2O)[C@](C)(O)C[C@@H](C)CN(C)[C@H](C)[C@@H](O)[C@]1(C)O [AZM, azithromycin, reference compound]
Killing profile against K. pneumoniae (K. pneumoniae NCTC418): acted bacteriostatically | MIC (S. aureus COL (MRSA); pH 7.4, read-out: MIC S. aureus COL (MRSA)): < 0.5 mg/L | MIC (S. aureus COL (MRSA); read-out: MIC S. aureus, 12.5% MHB): < 0.5 mg/L | MIC (S. aureus COL (MRSA); read-out: MIC S. aureus, Full MHB): < 0.5 mg/L | MIC S. aureus COL (MRSA) (S. aureus COL (MRSA); 12.5% MH pH 7.4): <0.5 mg/L | MIC (P. aeruginosa PAO1; PAO1, pH 7.4, read-out: MIC P. aeruginosa PAO1): 32 mg/L (≈ 42.7 µM) | MIC (P. aeruginosa PAO1; PAO1, read-out: MIC P. aeruginosa, 12.5% MHB): 32 mg/L (≈ 42.7 µM) | MIC (P. aeruginosa PAO1; PAO1, read-out: MIC P. aeruginosa, Full MHB): 32 mg/L (≈ 42.7 µM) | MIC P. aeruginosa PAO1 (P. aeruginosa PAO1; full MH pH 7.4): 32 mg/L (≈ 42.7 µM) | MIC (K. pneumoniae NCTC 418; NCTC418, pH 7.4, read-out: MIC K. pneumoniae NCTC418, supplement CSV, 12.5% MH pH 7.4): 1 mg/L (≈ 1.34 µM) | MIC (K. pneumoniae NCTC 418; NCTC418, pH 7.4, read-out: MIC K. pneumoniae NCTC418, supplement CSV, full MH pH 7.4): < 0.5 mg/L | MIC (K. pneumoniae NCTC 418; NCTC418, read-out: MIC K. pneumoniae, 12.5% MHB, K. pneumoniae NCTC 418, 12.5% Müller–Hinton medium, 16–20 h at 37 °C): 1 mg/L (≈ 1.34 µM) | MIC (K. pneumoniae NCTC 418; NCTC418, read-out: MIC K. pneumoniae, Full MHB, K. pneumoniae NCTC 418, full Müller–Hinton medium, 16–20 h at 37 °C): < 0.5 mg/L | MIC (A. baumannii ATCC19606; ATCC19606, pH 7.4, read-out: MIC A. baumannii ATCC19606, supplement CSV, 12.5% MH pH 7.4): 32 mg/L (≈ 42.7 µM) | MIC (A. baumannii ATCC19606; ATCC19606, pH 7.4, read-out: MIC A. baumannii ATCC19606, supplement CSV, full MH pH 7.4): 4 mg/L (≈ 5.34 µM) | MIC (A. baumannii ATCC19606; ATCC19606, read-out: MIC A. baumannii, 12.5% MHB, A. baumannii ATCC19606, 12.5% Müller–Hinton medium, 16–20 h at 37 °C): 32 mg/L (≈ 42.7 µM) | MIC (A. baumannii ATCC19606; ATCC19606, read-out: MIC A. baumannii, Full MHB, A. baumannii ATCC19606, full Müller–Hinton medium, 16–20 h at 37 °C): 4 mg/L (≈ 5.34 µM) | MIC (E. coli W3110 [1]; W3110, pH 7.4, read-out: MIC E. coli W3110, supplement CSV, 12.5% MH pH 7.4): 2 mg/L (≈ 2.67 µM) | MIC (E. coli W3110 [1]; W3110, pH 7.4, read-out: MIC E. coli W3110, supplement CSV, full MH pH 7.4): < 0.5 mg/L | MIC (E. coli W3110 [1]; W3110, read-out: MIC E. coli, 12.5% MHB, E. coli W3110, 12.5% Müller–Hinton medium, 16–20 h at 37 °C, broth microdilution): 2 mg/L (≈ 2.67 µM) | MIC (E. coli W3110 [1]; W3110, read-out: MIC E. coli, Full MHB, E. coli W3110, full Müller–Hinton medium, 16–20 h at 37 °C, broth microdilution): < 0.5 mg/L | Killing profile against E. coli (E. coli W3110 [2]): acted bacteriostatically

VDKPPYLPRPRPPRRIYNR [sr5Cterm-Onc] (VDKPPYLPRPRPPRRIYNR-NH2; also: residues 15-19 stereorandomized (1:1 L/D mixture))
Haemolysis on hRBC, MHC (human red blood cells; 2.5% human red blood cells (final) in 10 mM phosphate, 150 mM NaCl, pH 7.4, 25 °C, 4 h, visual inspection): >1000 µg/mL | MHC human red blood cells (human red blood cells; supplement CSV): >1000 µg/mL | Killing profile against K. pneumoniae (K. pneumoniae NCTC418): comparable kinetics to L-Onc | MIC S. aureus, 12.5% MHB (S. aureus COL (MRSA); S. aureus COL (MRSA), 12.5% Müller–Hinton medium, 16–20 h at 37 °C): > 16 mg/L | MIC S. aureus, Full MHB (S. aureus COL (MRSA); S. aureus COL (MRSA), full Müller–Hinton medium, 16–20 h at 37 °C): > 64 mg/L | MIC S. aureus COL (MRSA) (S. aureus COL (MRSA); 12.5% MH pH 7.4): >16 mg/L | MIC S. aureus COL (MRSA) (S. aureus COL (MRSA); full MH pH 7.4): >64 mg/L | MIC P. aeruginosa, 12.5% MHB (P. aeruginosa PAO1; P. aeruginosa PAO1, 12.5% Müller–Hinton medium, 16–20 h at 37 °C): 8 mg/L | MIC P. aeruginosa, Full MHB (P. aeruginosa PAO1; P. aeruginosa PAO1, full Müller–Hinton medium, 16–20 h at 37 °C): 64 mg/L | MIC P. aeruginosa PAO1 (P. aeruginosa PAO1; 12.5% MH pH 7.4): 8 mg/L | MIC P. aeruginosa PAO1 (P. aeruginosa PAO1; full MH pH 7.4): 64 mg/L | MIC K. pneumoniae, 12.5% MHB (K. pneumoniae NCTC 418; K. pneumoniae NCTC 418, 12.5% Müller–Hinton medium, 16–20 h at 37 °C): 2 / 2 μg/mL | MIC K. pneumoniae, Full MHB (K. pneumoniae NCTC 418; K. pneumoniae NCTC 418, full Müller–Hinton medium, 16–20 h at 37 °C): 2 / 2 μg/mL | MIC K. pneumoniae NCTC418 (K. pneumoniae NCTC 418; 12.5% MH pH 7.4): 2 mg/L | MIC K. pneumoniae NCTC418 (K. pneumoniae NCTC 418; full MH pH 7.4): 2 mg/L | MIC A. baumannii, 12.5% MHB (A. baumannii ATCC19606; A. baumannii ATCC19606, 12.5% Müller–Hinton medium, 16–20 h at 37 °C): 4 mg/L | MIC A. baumannii, Full MHB (A. baumannii ATCC19606; A. baumannii ATCC19606, full Müller–Hinton medium, 16–20 h at 37 °C): 32 mg/L | MIC A. baumannii ATCC19606 (A. baumannii ATCC19606; 12.5% MH pH 7.4): 4 mg/L | MIC A. baumannii ATCC19606 (A. baumannii ATCC19606; full MH pH 7.4): 32 mg/L | MIC E. coli, 12.5% MHB (E. coli W3110 [1]; E. coli W3110, 12.5% Müller–Hinton medium, 16–20 h at 37 °C, broth microdilution): 2 mg/L | MIC E. coli, Full MHB (E. coli W3110 [1]; E. coli W3110, full Müller–Hinton medium, 16–20 h at 37 °C, broth microdilution): 4 mg/L | MIC E. coli W3110 (E. coli W3110 [1]; 12.5% MH pH 7.4): 2 mg/L | MIC E. coli W3110 (E. coli W3110 [1]; full MH pH 7.4): 4 mg/L | Protection of U2506 of 23S rRNA from CMCT modification (band at C2507) [3]: protected from CMCT modification | Killing profile against E. coli (E. coli W3110 [2]): comparable kinetics to L-Onc | MIC P. aeruginosa PA14 4.13 (phoQ), 12.5% MHB ([4]; polymyxin B resistant strain, 12.5% MHB pH 7.4, 16–20 h at 37 °C): 8 mg/L | MIC P. aeruginosa PA14 4.13 (phoQ), full MHB ([4]; polymyxin B resistant strain, full MHB pH 7.4, 16–20 h at 37 °C): 64 mg/L | MIC P. aeruginosa PA14 4.13 ([4]; 12.5% MH pH 7.4): 8 mg/L | MIC P. aeruginosa PA14 4.13 ([4]; full MH pH 7.4): 64 mg/L
